Values belong to the compound of their own block, whether it stands above or below them.
Key:
MCF-7 cells [1] = experiment: Internalization by flow cytometry (red fluorescent cells); assay type: cell-based, human; settings: MCF-7, 0.5 nM
Experimental: by live MCF-7 cancer cells. Cells were treated with 0.5 nM compound for 1, 3, 6 or 24 h and red fluorescence was measured by flow cytometry. […] The x-axis represents the incubation time in hours and the y-axis the percentage of red fluorescent cells.
(§1) To do this, MCF-7 cells or healthy donor fibroblasts have been treated or not with 0.5 nM of compound of formula
(§2) for 1, 3, 6 or 24 h, and cell fluorescence was assessed by flow cytometry by detecting the number of cells with red fluorescence.

[2] = system: healthy donor fibroblasts; experiment: as above; assay type: cell-based; settings: 0.5 nM
Experimental: by healthy living cells of the fibroblast type. Cells were treated with 0.5 nM compound for 1, 3, 6 or 24 h and red fluorescence was measured by flow cytometry. […] The x-axis represents the incubation time in hours and the y-axis the percentage of red fluorescent cells.
as §1, §2

[3] = Fluorescence quantum yield in acetonitrile; assay type: physicochemical; settings: for quantum yield of fluorescence ϕf: in MeCN, excitation at 483 nm, emission 637 nm (II) or 550 nm (II-H), reference tetraphenylporphyrin
Source text: The inventors then set out to measure the value ϕf of the quantum yield of fluorescence of the following compound taken up in acetonitrile
To do this, the inventors measured the absorbance (relative intensity) as a function of the wavelength (in nm) in the presence of increasing doses of 1,8-[…] (DBU—0 to 2 equivalents).
Phenazinium II and its II-H conjugate base fluoresce in MeCN at neutral or basic pH. […] The reference used for the calculation of the fluorescence quantum yield is tetraphenylporphyrin in acetonitrile (ϕf=0.15).
Calculation of ϕ: It is determined by measuring the emission intensity of a solution of known concentration; the reference used to calculate the fluorescence quantum yield here is tetraphenylporphyrin in acetonitrile (ϕf=0.15).

MCF-7 tumor cells = experiment: Internalization kinetics with CLARIOstar plate reader; assay type: cell-based, human; settings: MCF-7, in less than 24 hours
Experimental: Data are percent internalization (remaining fluorescence/total fluorescence) as a function of time in hours. Data are means of three experiments±standard deviation.
The internalization kinetics were carried out with a CLARIOstar reader in order to quantify the internalization of the compound in the MCF-7 tumor cells. The values, corresponding to the ratio of the residual fluorescence/the total fluorescence, are presented in the form of means of three experiments, ±the standard deviation.

MCF7 cells = experiment: One-photon photodynamic therapy in vitro, MTT viability; assay type: cell-based, human; settings: MCF7, 100 nM, 5 h incubation, one-photon irradiation (λirrad.=514 nm), MTT two days later
Experimental: FIG. […] Two days later, the cells were subjected to a colorimetric cell viability assay (MTT). The experiment was carried out 3 times.
The inventors tested the effect of the compounds according to the invention in photodynamic therapy. MCF7 cells were incubated with the compound of formula
[…] Two days later, the cells were subjected to a colorimetric cell viability assay (MTT).

MCF-7 cells [4] = experiment: Two-photon photodynamic therapy in vitro; assay type: cell-based, human; settings: two-photon λirrad.=810 nm, irradiation 5 seconds, 100 nM
Experimental: As a control, untreated MCF7 cells without irradiation (A1), after irradiation at 790 nm (B1) or 810 nm (C1) are presented. […] Data are means of three experiments±standard deviation.
Two-photon photodynamic therapy (λirrad.=810 nm) has shown very encouraging results, since nearly 50% of tumor cells are killed without optimization (irradiation for only 5 seconds at a very low concentration of 100 nM of compound according to the invention).

[5] = Singlet oxygen (1O2) production quantum yield; assay type: physicochemical
Experimental: The absorption spectra were measured with a Perkin-Elmer double beam UV-visible spectrophotometer (Lambda EZ 210). The fluorescence spectrum was measured with a Fluorolog FL3-222 spectrofluorimeter (Horiba Jobin Yvon, Longjumeau, France) equipped with a 450 W xenon arc lamp, a thermostated compartment (25° C.), a photomultiplier UV-visible R928 ([…] Japan) and an InGaAs infrared detector cooled with liquid nitrogen (DSS-16A020L Electro-Optical System Inc, Phoenixville, Pa., USA). The excitation beam is separated by an SPEX dual grating monochromator (1200 lines/mm blazed at 330 nm). The fluorescence was measured by the UV-Visible detector via the SPEX double grating emission monochromator (1200 lines/mm blazed at 500 nm). The production of singlet oxygen was measured by the infrared detector via the SPEX double grating emission monochromator (600 lines/mm blazed at 1 μm). All spectra were measured using 4-sided quartz cuvettes. The absorbance values at the excitation wavelength of the references and samples have been adjusted to approximately 0.2.
By this method, the inventors were able to measure the quantum yield ϕΔ, which is 0.11 for the compound

SMILES: CCCCCCCCNc1ccc2nc3cc(NC(C)(C)C)c(N)cc3[n+](CCCCCCCC)c2c1 [drawing 47]
cells that have internalized the compound (MCF-7 cells [1]; 6 h incubation): 46%
cells that have internalized the compound (MCF-7 cells [1]; 24 h incubation): 90%
cells that have internalized the compound ([2]; 6 h incubation): 18%
cells that have internalized the compound ([2]; 24 h incubation): 24%

SMILES: CCCCCCCCNc1ccc2nc3cc(NC(C)(C)C)c(=N)cc-3n(CCCCCCCC)c2c1 [II-H]
quantum yield of fluorescence ϕf [3]: 0.08

SMILES: CCCCCCCCNc1ccc2nc3cc(NC(C)(C)C)c(N)cc3[n+](CCCCCCCC)c2c1 [drawing 45]
tumor cells killed (MCF7 cells): 98%
tumor cells killed (MCF-7 cells [4]): ~50%

Continued, in another order:

quantum yield of fluorescence ϕf [3]: 0.76
brightness (B=ε×ϕ) ([3]; in acetonitrile): about 50000
SMILES: CCCCCCCCNc1ccc2nc3cc(NC(C)(C)C)c(N)cc3[n+](CCCCCCCC)c2c1 [II]
percent internalization (compound penetrating the cell) (MCF-7 tumor cells): 10%

singlet oxygen quantum yield ϕΔ [5]: 0.11
SMILES: CCCCCCCCNc1ccc2nc3cc(NC(C)(C)C)c(N)cc3[n+](CCCCCCCC)c2c1 [drawing 44]

— patent US20220315539A1, “PHENAZINE DERIVATIVE AND USE THEREOF FOR THE TREATMENT OF CANCER” (CENTRE NATIONAL DE LA RECHERCHE SCIENTIFIQUE, priority 2019, published 2022)
